The subject of one data set is ob/ob mice. In words: ob/ob mice: plasma parameters, food consumption, marker gene mRNA. In kind it is in vivo, mouse. As to conditions: ob/ob mice; for mRNA expression levels of the Glut4, aP2 and HSL marker genes: 25 mg/kg two times per week. The source says:
Leptin is a hormone produced by fat cells that regulates appetite. Deficiencies in this hormone in both humans and non-human animals leads to obesity. ob/ob mice have a mutation in the leptin gene which results in obesity and hyperglycemia. As such, these mice are a useful model for the investigation of obesity and diabetes and treatments designed to treat these conditions. ob/ob mice have higher circulating levels of insulin and are less hyperglycemic than db/db mice, which harbor a mutation in the leptin receptor. In accordance with the present invention, the oligomeric compounds of the invention are tested in the ob/ob model of obesity and diabetes.
Seven-week old male C57B1/6J-Lep ob/ob mice (Jackson Laboratory, Bar Harbor, Me.) are fed a diet with a fat content of 10-15% and are subcutaneously injected with the oligomeric compounds of the invention or a control compound at a dose of 25 mg/kg two times per week for 4 weeks. Saline-injected animals, leptin wildtype littermates (i.e. lean littermates) and ob/ob mice fed a standard rodent diet serve as controls. After the treatment period, mice are sacrificed and target levels are evaluated in liver, brown adipose tissue (BAT) and white adipose tissue (WAT). RNA isolation and target RNA expression level quantitation are performed as described by other examples herein.
To assess the physiological effects resulting from modulation of target, the ob/ob mice are evaluated at the end of the treatment period for serum lipids, serum free fatty acids, serum cholesterol (CHOL), liver triglycerides, fat tissue triglycerides and liver enzyme levels. Hepatic steatosis, or clearing of lipids from the liver, is assessed by measuring the liver triglyceride content. Hepatic steatosis is assessed by routine histological analysis of frozen liver tissue sections stained with oil red O stain, which is commonly used to visualize lipid deposits, and counterstained with hematoxylin and eosin, to visualize nuclei and cytoplasm, respectively.
The effects of target modulation on glucose and insulin metabolism are evaluated in the ob/ob mice treated with the oligomeric compounds of the invention. Plasma glucose is measured at the start of the treatment and after 2 weeks and 4 weeks of treatment. Plasma insulin is similarly measured at the beginning of the treatment, and following at 2 weeks and at 4 weeks of treatment. Glucose and insulin tolerance tests are also administered in fed and fasted mice. Mice receive intraperitoneal injections of either glucose or insulin, and the blood glucose and insulin levels are measured before the insulin or glucose challenge and at 15, 20 or 30 minute intervals for up to 3 hours.
The ob/ob mice that receive treatment are evaluated at the end of the treatment period for the effects of target modulation on the expression of genes that participate in lipid metabolism, cholesterol biosynthesis, fatty acid oxidation, fatty acid storage, gluconeogenesis and glucose metabolism. These genes include, but are not limited to, HMG-CoA reductase, acetyl-CoA carboxylase 1 and acetyl-CoA carboxylase 2, camitine palmitoyltransferase I and glycogen phosphorylase, glucose-6-phosphatase and phosphoenolpyruvate carboxykinase 1, lipoprotein lipase and hormone sensitive lipase. mRNA levels in liver and white and brown adipose tissue are quantitated by real-time PCR as described in other examples herein, employing primer/probe sets that are generated using published sequences of each gene of interest.
As described herein, leptin-deficient (ob/ob) mice, leptin receptor-deficient (db/db) mice and diet-induced obesity (DIO) mice are used to model obesity and diabetes. In accordance with the present invention, oligomeric compounds targeting mir-143, mir-131 (also known as mir-9) and mir-203 were tested in the ob/ob and db/db models. […]

The test system of another data set is T47D cells. Briefly: Cell cycle assay in T47D cells. In kind it is cell-based, human. As to conditions: 150 nM, 48 hours, relative to untreated control. As to the method: (§1) BJ cells were routinely cultured in MEM high glucose with 2 mM L-glutamine and Earle's BSS adjusted to contain 1.5 g/L sodium bicarbonate and supplemented with 10% fetal bovine serum, 0.1 mM non-essential amino acids and 1.0 mM sodium pyruvate (all media and supplements from Invitrogen Life Technologies, Carlsbad, Calif.). B16-F10 cells were routinely cultured in DMEM high glucose (Invitrogen Life Technologies, Carlsbad, Calif.) supplemented with 10% fetal bovine serum (Invitrogen Life Technologies, Carlsbad, Calif.). T47D cells were cultured in DMEM High glucose media (Invitrogen Life Technologies, Carlsbad, Calif.) supplemented with 10% fetal bovine serum. […] Cells were plated on collagen-coated 24-well plates (Falcon-Primaria #3047, BD Biosciences, Bedford, Mass.) at approximately 50,000 cells per well and allowed to attach to wells overnight.
(§2) In further studies, additional cell lines were treated with oligomeric compounds targeted against miRNAs to assess the effects of each oligomeric compound on cell cycling. BJ, B16, T47D, and HeLa cells were cultured and transfected as described above. […] T47Dp53 cells are T47D cells that have been transfected with and selected for maintenance of a plasmid that expresses a wildtype copy of the p53 gene (for example, pCMV-p53; Clontech, Palo Alto, Calif.), using standard laboratory procedures. BJ cells were treated with 200 nM of each oligomeric compound, and T47D, T47Dp53, HeLa, and B16 cells were treated with 150 nM of each oligomeric compound. The human foreskin fibroblast BJ cell line represents a non-cancer cell line, while HeLa, T47D, T47Dp53 cells and the mouse melanoma cell line B16-F10 represent cancerous cell lines. For comparison, oligomeric compounds ISIS 183891 (SEQ ID NO: 847) and ISIS 285717 ([…]; herein incorporated as SEQ ID NO: 857), both targeting the kinesin-like 1/Eg5 mRNA, involved in cell cycling, were used as positive controls. The random-mer ISIS 29848 was used as a negative control. Additionally, the oligomeric compounds ISIS Number 25690 ([…]; herein incorporated as SEQ ID NO: 858) and ISIS Number 25691 ([…]; herein incorporated as SEQ ID NO: 859), targeted to nucleotides 3051-3070 and 3085-3104, respectively, of the mRNA encoding the Drosha RNase III (GenBank Accession NM_013235.2, incorporated herein as SEQ ID NO: 860) were also tested. ISIS Number 25690 and ISIS Number 25691 are 5-10-52′-MOE gapmer compounds, 20 nucleotides in length, with phosphorothioate internucleoside linkages throughout the oligomeric compound. All cytidine residues are 5-methylcytidines. Transfections were performed using the methods described herein. Cells were prepared for flow cytometry 48-hours after oligonucleotide treatment. Results of these studies are shown in Table 35, where data are expressed as percentage of cells in each phase relative to the untreated control cells in that phase.

Another data set concerns T47Dp53 cells. Briefly: Cell cycle assay in T47Dp53 cells. In kind it is cell-based, human. As to conditions: 150 nM, 48 hours, relative to untreated control.
A further data set has as its system BJ cells. In words: Cell cycle assay in BJ cells. Format: cell-based, human. As to conditions: 200 nM, 48 hours, relative to untreated control. As to the method: as §1, §2
Where [1] appears, read: 25 mg/kg s.c. two times per week, 6 weeks.

In the oligonucleotide strings, read from the 5' end, every base follows the letter of its sugar. An asterisk marks phosphorothioate; unmarked linkages are phosphodiester. Other units and linkages are bracketed, terminal groups are in braces. A string of capitals states the bases alone. e = 2'-O-(2-methoxyethyl) (MOE); [5mC] = 5-methylcytosine; d = 2'-deoxy (DNA)

With “ACTTTCGGTTATCTAGCTTTA [ISIS 327892] (chemistry not given here) [uniform 2′-MOE PS; targets mir-131-2/mir-9]”, the “plasma glucose levels (fed)” value in the data set on ob/ob mice (setting [1]) is “reduced beginning at approximately four weeks after the start of treatment”. Moreover, the “plasma glucose levels, fasted state” value with ob/ob mice (day 19) was “significant reductions in plasma glucose levels”.

As for “327902 (antisense eG*eG*e[5mC]*eT*eG*eT*e[5mC]*eA*eA*eT*eT*e[5mC]*eA*eT*eA*eG*eG*eT*e[5mC]*eA*eG) [compound 327902]”, in the data set with T47D cells, the “% cells in cell cycle phase G1” value is 75%, the “% cells in cell cycle phase G2/M” value turned out to be 116%, the “% cells in cell cycle phase S” value came to 120% and the “% cells in cell cycle phase aneuploid” value came out at 162%. In addition, the “% cells in cell cycle phase subG1” value with T47D cells amounted to 102%. For the same substance, in the data set with T47Dp53 cells, the “% cells in cell cycle phase G1” value turned out to be 100%, the “% cells in cell cycle phase G2/M” value was determined as 102%, the “% cells in cell cycle phase S” value is on record as 98% and the “% cells in cell cycle phase aneuploid” value is 97%. The “% cells in cell cycle phase subG1” value with T47Dp53 cells is on record as 155%. Moreover, in the data set on BJ cells, the “% cells in cell cycle phase G1” value was found to be 99%, the “% cells in cell cycle phase G2/M” value is recorded as 108%, the “% cells in cell cycle phase S” value is 88% and the “% cells in cell cycle phase aneuploid” value was determined as 82%. In addition, the “% cells in cell cycle phase subG1” value with BJ cells stood at 91%.

Take “327905 (antisense e[5mC]*eA*eG*eA*e[5mC]*eT*e[5mC]*e[5mC]*eG*eG*eT*eG*eG*eA*eA*eT*eG*eA*eA*eG*eG*eA) [compound 327905]”: in the data set with T47D cells, the “% cells in cell cycle phase G1” value is 97%, the “% cells in cell cycle phase G2/M” value was 103%, the “% cells in cell cycle phase S” value worked out at 101% and the “% cells in cell cycle phase aneuploid” value was 164%. Further, the “% cells in cell cycle phase subG1” value in the data set with T47D cells was determined as 81%. For the same substance, in the data set with T47Dp53 cells, the “% cells in cell cycle phase G1” value is given as 112%, the “% cells in cell cycle phase G2/M” value was 104%, the “% cells in cell cycle phase S” value was 80% and the “% cells in cell cycle phase aneuploid” value is recorded as 103%. The “% cells in cell cycle phase subG1” value with T47Dp53 cells turned out to be 109%. For the same substance, in the data set with BJ cells, the “% cells in cell cycle phase G1” value is on record as 100%, the “% cells in cell cycle phase G2/M” value turned out to be 109%, the “% cells in cell cycle phase S” value is on record as 77% and the “% cells in cell cycle phase aneuploid” value stood at 102%. Further, in the data set with BJ cells, the “% cells in cell cycle phase subG1” value is 105%.

Turning to “TGAGCTACAGTGCTTCATCTCA [ISIS 340927] (chemistry not given here) [5-10-7 2′-MOE gapmer PS; targets mature mir-143]”, in the data set with ob/ob mice (setting [1]), the plasma cholesterol levels entry is “slightly decrease over time”, the “plasma glucose levels (fed)” value was “generally slightly lower” and the plasma triglyceride levels entry is “generally slightly lower”. Further, the “mRNA expression levels of the Glut4, aP2 and HSL marker genes” value in the data set on ob/ob mice was “slightly reduced”.

On to “328759 (antisense eG*eA*eG*eG*eG*dA*dT*dT*dG*dT*dA*dT*dG*dA*dA*e[5mC]*eA*eT*e[5mC]*eT) [compound 328759]”, for which, in the data set with T47D cells, the “% cells in cell cycle phase G1” value is given as 86%, the “% cells in cell cycle phase G2/M” value is given as 122%, the “% cells in cell cycle phase S” value amounted to 87% and the “% cells in cell cycle phase aneuploid” value amounted to 223%. Besides, the “% cells in cell cycle phase subG1” value with T47D cells is recorded as 123%. Moreover, in the data set with T47Dp53 cells, the “% cells in cell cycle phase G1” value is 99%, the “% cells in cell cycle phase G2/M” value was determined as 108%, the “% cells in cell cycle phase S” value is 93% and the “% cells in cell cycle phase aneuploid” value was 109%. Moreover, the “% cells in cell cycle phase subG1” value with T47Dp53 cells is 423%. In the data set with BJ cells, the “% cells in cell cycle phase G1” value is 91%, the “% cells in cell cycle phase G2/M” value came out at 141%, the “% cells in cell cycle phase S” value is 117% and the “% cells in cell cycle phase aneuploid” value worked out at 160%. In addition, the “% cells in cell cycle phase subG1” value in the data set with BJ cells came to 164%.

“TGAGCTACAGTGCTTCATCTCA [ISIS 327901] (chemistry not given here) [uniform 2′-MOE PS; targets mir-143]”: the “mRNA expression levels of the Glut4, aP2 and HSL marker genes” value with ob/ob mice is “slightly reduced”.

Values taken from patent publication US8178506B2, “Oligomeric compounds and compositions for use in modulation of small non-coding RNAs” (Regulus Therapeutics Inc., priority 2003, dated 2012).
